Assay results: ChEMBL document CHEMBL3044687, “Microwave-assisted synthesis of some novel and potent antibacterial and antifungal compounds with biological screening” (2012)

Legend:
Assay type in all cases: functional
Conditions in all cases: read-out: DIZ
[1] = system: Aspergillus niger; assay: Antifungal activity against Aspergillus niger at 50 ug/ml after 48 hr by disk diffusion method
[2] = system: Candida albicans; assay: Antifungal activity against Candida albicans at 50 ug/ml after 48 hr by disk diffusion method
[3] = system: Candida albicans; assay: Antifungal activity against Candida albicans at 200 ug/ml after 48 hr by disk diffusion method
[4] = system: Pseudomonas aeruginosa; assay: Antibacterial activity against Pseudomonas aeruginosa at 200 ug/ml after 24 hr by disk diffusion method
[5] = system: Bacillus subtilis; assay: Antibacterial activity against Bacillus subtilis at 200 ug/ml after 24 hr by disk diffusion method
[6] = system: Escherichia coli; assay: Antibacterial activity against Escherichia coli at 200 ug/ml after 24 hr by disk diffusion method
[7] = system: Escherichia coli; assay: Antibacterial activity against Escherichia coli at 100 ug/ml after 24 hr by disk diffusion method
[8] = system: Pseudomonas aeruginosa; assay: Antibacterial activity against Pseudomonas aeruginosa at 100 ug/ml after 24 hr by disk diffusion method
[9] = system: Aspergillus niger; assay: Antifungal activity against Aspergillus niger at 200 ug/ml after 48 hr by disk diffusion method
[10] = system: Candida albicans; assay: Antifungal activity against Candida albicans at 100 ug/ml after 48 hr by disk diffusion method
[11] = system: Staphylococcus aureus; assay: Antibacterial activity against Staphylococcus aureus at 50 ug/ml after 24 hr by disk diffusion method
[12] = system: Staphylococcus aureus; assay: Antibacterial activity against Staphylococcus aureus at 200 ug/ml after 24 hr by disk diffusion method
[13] = system: Bacillus subtilis; assay: Antibacterial activity against Bacillus subtilis at 100 ug/ml after 24 hr by disk diffusion method
[14] = system: Pseudomonas aeruginosa; assay: Antibacterial activity against Pseudomonas aeruginosa at 50 ug/ml after 24 hr by disk diffusion method
[15] = system: Escherichia coli; assay: Antibacterial activity against Escherichia coli at 50 ug/ml after 24 hr by disk diffusion method
[16] = system: Staphylococcus aureus; assay: Antibacterial activity against Staphylococcus aureus at 100 ug/ml after 24 hr by disk diffusion method
[17] = system: Bacillus subtilis; assay: Antibacterial activity against Bacillus subtilis at 50 ug/ml after 24 hr by disk diffusion method
[18] = system: Aspergillus niger; assay: Antifungal activity against Aspergillus niger at 100 ug/ml after 48 hr by disk diffusion method

SMILES | zone of inhibition at 50 µg/mL [1] | zone of inhibition at 50 µg/mL [2] | zone of inhibition at 200 µg/mL [3] | zone of inhibition at 200 µg/mL [4] | zone of inhibition at 200 µg/mL [5] | zone of inhibition at 200 µg/mL [6] | zone of inhibition at 100 µg/mL [7] | zone of inhibition at 100 µg/mL [8] | zone of inhibition at 200 µg/mL [9] | zone of inhibition at 100 µg/mL [10] | zone of inhibition at 50 µg/mL [11] | zone of inhibition at 200 µg/mL [12] | zone of inhibition at 100 µg/mL [13] | zone of inhibition at 50 µg/mL [14] | zone of inhibition at 50 µg/mL [15] | zone of inhibition at 100 µg/mL [16] | zone of inhibition at 50 µg/mL [17] | zone of inhibition at 100 µg/mL [18]
O=C1NC(c2ccccc2)(c2ccccc2)C(=O)N1CN1CCOCC1 | 10 mm | 10 mm | 15 mm | 14 mm | 14 mm | 17 mm | 10 mm | 8 mm | 12 mm | 12 mm | 5 mm | 9 mm | 12 mm | 4 mm | 4 mm | 6 mm | 4 mm | 11 mm
CN(C)CN1C(=O)NC(c2ccccc2)(c2ccccc2)C1=O | 16 mm | 16 mm | 19 mm | 17 mm | 22 mm | 22 mm | 13 mm | 10 mm | 18 mm | 18 mm | 4 mm | 12 mm | 10 mm | 6 mm | 5 mm | 9 mm | 5 mm | 18 mm
O=C1NC(c2ccccc2)(c2ccccc2)C(=O)N1Cn1nnc2ccccc21 | 11 mm | 11 mm | 13 mm | 14 mm | 22 mm | 18 mm | 10 mm | 10 mm | 11 mm | 12 mm | 6 mm | 18 mm | 14 mm | 6 mm | 3 mm | 12 mm | 5 mm | 11 mm
O=C1NC(c2ccccc2)(c2ccccc2)C(=O)N1CNc1nc2ccccc2s1 | 16 mm | 17 mm | 32 mm | 20 mm | 21 mm | 23 mm | 15 mm | 12 mm | 31 mm | 18 mm | 5 mm | 19 mm | 10 mm | 7 mm | 6 mm | 10 mm | 7 mm | 19 mm
O=C1NC(c2ccccc2)(c2ccccc2)C(=O)N1CN1C(=O)c2ccccc2C1=O | 12 mm | 15 mm | 20 mm | 10 mm | 16 mm | 20 mm | 12 mm | 8 mm | 16 mm | 16 mm | 4 mm | 9 mm | 12 mm | 5 mm | 5 mm | 6 mm | 4 mm | 15 mm
O=C1N(c2ccccc2)C(=O)C(c2ccccc2)(c2ccccc2)N1CNc1nc2ccccc2s1 | 16 mm | 13 mm | 20 mm | 20 mm | 18 mm | 17 mm | 15 mm | 12 mm | 20 mm | 15 mm | 5 mm | 17 mm | 10 mm | 7 mm | 6 mm | 10 mm | 7 mm | 16 mm
O=C1c2ccccc2C(=O)N1CN1C(=O)N(c2ccccc2)C(=O)C1(c1ccccc1)c1ccccc1 | 12 mm | 15 mm | 20 mm | 10 mm | 14 mm | 20 mm | 12 mm | 8 mm | 16 mm | 16 mm | 4 mm | 9 mm | 10 mm | 5 mm | 5 mm | 6 mm | 4 mm | 15 mm
CN1CCN(CN2C(=O)NC(c3ccccc3)(c3ccccc3)C2=O)CC1 | 11 mm | 12 mm | 13 mm | 10 mm | 19 mm | 16 mm | 13 mm | 6 mm | 12 mm | 13 mm | 6 mm | 20 mm | 12 mm | 4 mm | 6 mm | 12 mm | 4 mm | 12 mm
CCN(CC)CN1C(=O)N(c2ccccc2)C(=O)C1(c1ccccc1)c1ccccc1 | 8 mm | 9 mm | 11 mm | 14 mm | 13 mm | 18 mm | 13 mm | 9 mm | 12 mm | 10 mm | 5 mm | 14 mm | 9 mm | 5 mm | 3 mm | 10 mm | 3 mm | 10 mm
O=C1N(c2ccccc2)C(=O)C(c2ccccc2)(c2ccccc2)N1Cn1ccnc1 | 10 mm | 10 mm | 13 mm | 18 mm | 13 mm | 19 mm | 14 mm | 9 mm | 13 mm | 11 mm | 4 mm | 18 mm | 11 mm | 5 mm | 5 mm | 9 mm | 5 mm | 12 mm
COC1=CC(=O)C[C@@H](C)[C@]12Oc1c(Cl)c(OC)cc(OC)c1C2=O [GRISEOFULVIN] | 21 mm | 18 mm | 40 mm | – | – | – | – | – | 40 mm | 25 mm | – | – | – | – | – | – | – | 24 mm
O=C1N(c2ccccc2)C(=O)C(c2ccccc2)(c2ccccc2)N1CNc1nccs1 | 11 mm | 11 mm | 13 mm | 18 mm | 13 mm | 18 mm | 10 mm | 12 mm | 11 mm | 12 mm | 4 mm | 18 mm | – | 4 mm | 5 mm | 10 mm | 5 mm | 11 mm
CC1(C)S[C@@H]2[C@H](NC(=O)[C@H](N)c3ccccc3)C(=O)N2[C@H]1C(=O)O [AMPICILLIN] | – | – | – | 23 mm | 26 mm | 29 mm | 18 mm | 14 mm | – | – | 9 mm | 23 mm | 16 mm | 9 mm | 10 mm | 14 mm | 10 mm | –
